From patent US20120316192A1, “SUBSTITUTED INDOLO [2,3-A] QUINOLIZINES” (priority 2011, published 2012)

Test system: not given
Assay: not given
Settings: not given

SMILES | melting point
COC(=O)C1=CC(C(=O)c2ccccc2O)=CN2CCc3c([nH]c4ccccc34)C12C(=O)OC (centres unmarked) | 258 °C (dec.)
CCOC(=O)C1=CC(C(=O)c2ccccc2O)=CN2CCc3c([nH]c4ccccc34)C12C(=O)OCC (centres unmarked) | 209 °C
COC(=O)C1=CC(C(=O)c2ccccc2O)=CN2CCc3c([nH]c4ccc(OC)cc34)C12C(=O)OC (centres unmarked) | 163 °C (dec.)
COC(=O)C1=CC(C(=O)c2cc(Cl)ccc2O)=CN2CCc3c([nH]c4ccccc34)C12C(=O)OC (centres unmarked) | 232 °C (dec.)
COC(=O)C1=CC(C(=O)c2cc(Br)ccc2O)=CN2CCc3c([nH]c4ccccc34)C12C(=O)OC (centres unmarked) | 220 °C (dec.)
COC(=O)C1=CC(C(=O)c2cc(C)ccc2O)=CN2CCc3c([nH]c4ccccc34)C12C(=O)OC (centres unmarked) | 197 °C
COC(=O)C1=CC(C(=O)c2cc(Cl)cc(Cl)c2O)=CN2CCc3c([nH]c4ccccc34)C12C(=O)OC (centres unmarked) | 238.2 °C (dec.)
COC(=O)C1=CC(C(=O)c2cc(Br)cc(Br)c2O)=CN2CCc3c([nH]c4ccccc34)C12C(=O)OC (centres unmarked) | 131 °C
COC(=O)C1=CC(C(=O)c2ccccc2OC)=CN2CCc3c([nH]c4ccccc34)C12C(=O)OC (centres unmarked) | 261 °C (dec.)
COC(=O)C1=CC(C(=O)c2ccccc2O)=CN2CCc3c([nH]c4ccc(O)cc34)C12C(=O)OC (centres unmarked) | 180 °C (dec.)
COC(=O)C1=CC(C(=O)c2ccccc2O)=CN2CCc3c([nH]c4ccc(C)cc34)C12C(=O)OC (centres unmarked) | 175 °C
COC(=O)C1=CC(C(=O)c2ccccc2O)=CN2CCc3c([nH]c4ccc(Br)cc34)C12C(=O)OC (centres unmarked) | 182 °C
COC(=O)C1=CC(C(=O)c2c(O)cccc2OC)=CN2CCc3c([nH]c4ccccc34)C12C(=O)OC (centres unmarked) | 237 °C (dec.)
CCOC(=O)C1=CC(C(=O)c2cc(C)ccc2O)=CN2CCc3c([nH]c4ccccc34)C12C(=O)OCC (centres unmarked) [Compound 1-03, Diethyl-3-(2-hydroxy-5-methylbenzoyl)-6,7,12,12b-tetrahydroindolo-[2,3-a]quinolizine-1,12b-dicarboxylate] | 208 °C
COC(=O)C1=CC(C(=O)c2cc(Br)ccc2O)=CN2CCc3c([nH]c4ccc(OC)cc34)C12C(=O)OC (centres unmarked) [Compound 1-05, Dimethyl-3-(5-bromo-2-hydroxybenzoyl)-9-methoxy-6,7,12,12b-tetrahydro-indolo[2,3-a]quinolizine-1,12b-dicarboxylate] | 197 °C (dec.)
CCOC(=O)C1=CC(C(=O)c2ccccc2O)=CN2CCc3c([nH]c4ccc(OC)cc34)C12C(=O)OCC (centres unmarked) [Compound 1-13, Diethyl-3-(2-hydroxybenzoyl)-9-methoxy-6,7,12,12b-tetrahydro-indolo[2,3-a]quinolizine-1,12b-dicarboxylate] | 212 °C
CCOC(=O)C1=CC(C(=O)c2cc(Br)ccc2O)=CN2CCc3c([nH]c4ccccc34)C12C(=O)OCC (centres unmarked) [Compound 1-14, Diethyl-3-(5-bromo-2-hydroxybenzoyl)-6,7,12,12b-tetrahydro-indolo[2,3-a]quinolizine-1,12b-dicarboxylate] | 215 °C
CCOC(=O)C1=CC(C(=O)c2cc(C)ccc2O)=CN2CCc3c([nH]c4ccc(OC)cc34)C12C(=O)OCC (centres unmarked) [Compound 1-16, Diethyl-3-(2-hydroxy-5-methylbenzoyl)-9-methoxy-6,7,12,12b-tetrahydroindolo[2,3-a]quinolizine-1,12b-dicarboxylate] | 228 °C
CCOC(=O)C1=CC(C(=O)c2cc(Cl)c(C)cc2O)=CN2CCc3c([nH]c4ccccc34)C12C(=O)OCC (centres unmarked) [Compound 1-18, Diethyl-3-(5-chloro-2-hydroxy-4-methylbenzoyl)-6,7,12,12b-tetrahydroindolo[2,3-a]quinolizine-1,12b-dicarboxylate] | 196 °C
CCOC(=O)C1=CC(C(=O)c2cc(Cl)ccc2O)=CN2CCc3c([nH]c4ccccc34)C12C(=O)OCC (centres unmarked) [Compound 1-19, Diethyl-3-(5-chloro-2-hydroxybenzoyl)-6,7,12,12b-tetrahydro-indolo[2,3-a]quinolizine-1,12b-dicarboxylate] | 216 °C
CCOC(=O)C1=CC(C(=O)c2cc(Cl)ccc2O)=CN2CCc3c([nH]c4ccc(OC)cc34)C12C(=O)OCC (centres unmarked) [Compound 1-20, Diethyl-3-(5-chloro-2-hydroxybenzoyl)-9-methoxy-6,7,12,12b-tetrahydroindolo[2,3-a]quinolizine-1,12b-dicarboxylate] | 230 °C
CCOC(=O)C1=CC(C(=O)c2cc(Br)ccc2O)=CN2CCc3c([nH]c4ccc(OC)cc34)C12C(=O)OCC (centres unmarked) [Compound 1-22, Diethyl-3-(5-bromo-2-hydroxybenzoyl)-9-methoxy-6,7,12,12b-tetrahydroindolo[2,3-a]quinolizine-1,12b-dicarboxylate] | 225 °C
COC(=O)C1=CC(C(=O)c2ccc(OCc3ccccc3)c(C)c2O)=CN2CCc3c([nH]c4ccccc34)C12C(=O)OC (centres unmarked) [Compound 1-23, Dimethyl 3-(4-(benzyloxy)-2-hydroxy-3-methylbenzoyl)-6,7,12,12b-tetrahydroindolo[2,3-a]quinolizine-1,12b-dicarboxylate] | 216 °C
COC(=O)C1=CC(C(=O)c2ccccc2O)=CN2[C@H](C(=O)OC)Cc3c([nH]c4ccccc34)C12C(=O)OC (stereo partly drawn) [Compound 1-28, (6S)-trimethyl 3-(2-hydroxybenzoyl)-6,7,12,12b-tetrahydroindolo[2,3-a]quinolizine-1,6,12b-tricarboxylate] | 244 °C (dec.)
CC(C)(C)OC(=O)C1=CC(C(=O)c2ccccc2O)=CN2CCc3c([nH]c4ccccc34)C12C(=O)OC(C)(C)C (centres unmarked) [Compound 1-54, di-tert-butyl 3-(2-hydroxybenzoyl)-6,7,12,12b-tetrahydroindolo[2,3-a]quinolizine-1,12b-dicarboxylate] | 237 °C (dec.)

Test system: HeLa cells
Assay: FACS analysis of the cell cycle (propidium iodide DNA content)
Assay type: cell-based, human
Settings: 1 μM nocodazole, 24 h after treatment
Description: HeLa human cervical carcinoma cell line, the human breast cancer cell line MCF7, and the human colorectal carcinoma cell line SW480 were maintained in Dulbecco's Modified Eagle's medium (DMEM, PAA, Pasching Austria). The colorectal cell line HT29 was cultured in McCoy's 5A medium (PAA, Pasching, Austria). DMEM medium was supplemented with 10% fetal calf serum, sodium pyruvate, non-essential amino acids, penicillin and streptomycin, McCoy's 5A medium was supplemented with 10% fetal calf serum, penicillin and streptomycin. All cell lines were cultured at 37° C. in a 5% CO2 humidified atmosphere. Further, fluorescent activated cell sorting (FACS) was used successfully to analyze the cell cycle and mitotic arrest under the influence of indoloquinolizines. HeLa cells were fixed and stained for FACS analysis 24 h after compound treatment. Cells were trypsinized and combined with any floating cells, pelleted, and resuspended in 1 ml PBS. Ice cold ethanol (70%) was added, and samples were incubated at −20° C. until analysis. After fixation the cells were pelleted, resuspended in 500 μl staining solution (50 μg/ml propidium iodide, 0.1 mg/ml RNase A, 0.05% Triton X-100) and incubated for 40 min at 37° C. 3 ml PBS were added; the cells were pelleted again and resuspended in 500 μl PBS. The DNA content was measured with a Becton Dickinson LSRII and analyzed with FlowJo 7.5 software. The cell cycle of compound treated HeLa cells was analyzed by fluorescence activated cell sorting (FIG. 1). […] A similar distribution is given in (−)-1-01 treated cells (FIGS. 1c and 1d); here 9% are in G1 and 38% in G2/M phase (25 μM) respectively; 8% in G1 and 40% in G2/M phase (50 μM). This means that the mitotic index is increased by more than two fold (from 0.16 to 0.38 respectively 0.40), indicating a mitotic arrest after compound treatment.

SMILES | cells in G1 phase [%] | cells in G2/M phase [%]
COC(=O)Nc1nc2ccc(C(=O)c3cccs3)cc2[nH]1 [nocodazole, reference compound] | 4 | 40

Test system: all cell lines but Saos2
Assay: Apo-ONE homogeneous caspase-3/7 assay (apoptosis), summary statement
Assay type: cell-based
Settings: all cell lines but Saos2, 42 h
Description: HeLa human cervical carcinoma cell line, the human breast cancer cell line MCF7, the African green monkey kidney cell line BS-C-1 and the human colorectal carcinoma cell lines HCT116 and SW480 were maintained in Dulbecco's Modified Eagle's medium (DMEM, PAA, Pasching Austria). The colorectal cell line HT29 was cultured in McCoy's 5A medium (PAA, Pasching, Austria). The prostate carcinoma cells PC3 and the osteosarcoma cells Saos2 were cultured in RPMI medium (PAA, Pasching Austria). All media were supplemented with 10% fetal calf serum, L-glutamine, penicillin and streptomycin. All cell lines were maintained at 37° C. in a 5% CO2 humidified atmosphere.
Therefore we measured the caspase-3/7 activity in different cell lines with the Apo-ONE® homogeneous caspase-3/7 assay.
Caspase-3/7 activities were determined using the Apo-ONE® homogeneous caspase-3/7 assay (Promega, Mannheim Germany) according to the manufacturer's protocol. Briefly, cells were plated in quadruplicates in 384-well cell culture plate. After 24 hours cells were exposed for 42 hours to the compounds at different concentrations. Control cells were treated with 0.5% DMSO or staurosporine (STS). Subsequently cells were lysed with a lysis buffer containing the caspase-3/7 substrate Z-DEVD-R110 and were incubated at room temperature until further analysis. The fluorescence was detected with the TECAN Inifinite® M200 plate reader at excitation/emission wavelength 485/520 nm. The blank value was subtracted from each value and the relative caspase-3/7 activity was calculated compared to the DMSO treated cells.
These findings correlate with our results from the cell viability assays for these indoloquinolizine.

SMILES | impact on the apoptosis
COC(=O)C1=CC(C(=O)c2ccccc2O)=CN2CCc3c([nH]c4ccccc34)C12C(=O)OC (single isomer, unassigned; (+)) [(+)-1-01, Dimethyl-3-(2-hydroxybenzoyl)-6,7,12,12b-tetrahydroindolo[2,3a]quinolizine-1,12b-dicarboxylate] | did not have any impact on the apoptosis
COC(=O)C1=CC(C(=O)c2ccccc2O)=CN2CCc3c([nH]c4ccc(OC)cc34)C12C(=O)OC (single isomer, unassigned; (+)) [(+)-1-04, Dimethyl-3-(2-hydroxybenzoyl)-9-methoxy-6,7,12,12b-tetrahydro-indolo[2,3-a]quinolizine-1,12b-dicarboxylate] | did not have any impact on the apoptosis
